Test results published in patent US20260034161A1, “2-HYDROXYPROPYL-BETA-CYCLODEXTRIN AS A CANCER THERAPY NEOADJUVANT OR ADJUVANT” (University of the Witwatersrand, Johannesburg, priority 2022, published 2026).
Entries after “also recorded” stand apart in the source; their conditions may differ.

Columns and labels:
[1] = Serum AST and ALT as a measure of liver toxicity; conditions: mouse, in vivo
Procedure: In order to investigate the in vivo application of HPβCD as an anti-cancer agent for colorectal cancer (CRC) using NOD/SCID mice, 24 NOD/SCID mice (5-8 weeks old) were injected with 4×10^6 HT-29 cells (suspended in 10% McCoy's media and 1×PBS), until tumours developed. Once tumours reached a size of 150-200 mm^3 (1-2 weeks), treatments (12 treatments in total for each group, however only up to 6 treatments for the OXAL treated group due to obvious toxicity) were given. Treatment groups consisted of 4 mice each and included a control group (injected with 1×PBS), a group treated with HPβCD, a group treated with Oxaliplatin (OXAL) only, a group treated with 5-Fluorouracil (5FU) only, a group treated with HPβCD and OXAL and lastly a group treated with HPβCD and 5FU. Mice were intraperitoneally injected with 3 000 mg/kg of HPβCD, 10 mg/kg of OXAL and 30 mg/kg of 5FU thrice a week for 4 weeks. For combination treatments HPβCD was administered with either 5FU or OXAL chemotherapy. Mice were weighed three times a week and averages were calculated to show per week weights. […]
Blood was collected post euthanization and serum was analysed for AST and ALT levels using the IDEXX Catalyst DX Chemistry Analyzer. […]

NMuMg cells [2] = test: Immunofluorescence of EMT markers E-cadherin and vimentin in NMuMg cells; assay type: cell-based, mouse
Procedure: (§1) Three different mechanisms of action were used to induce EMT in breast and colorectal adenocarcinoma cell lines. Breast cancer MCF-7 cells were treated with 150 micromolar (μM) cobalt chloride (CoCl2) for 48 hours. Initially, a working stock solution of 2500 μM COCl2 was prepared by dilution in distilled water. The resulting solution was further diluted upon administration to cells cultured in cell culture media. Cell culture media composition: Dulbecco's Modified Eagle's Medium (DMEM) (Sigma Aldrich, UK) supplemented with 10% foetal bovine serum (FBS) (Celtic Molecular Diagnostics, SA) and 1% Penicillin-Streptomycin (Sigma Aldrich, UK). NMuMg cells (a normal mouse mammary cell line) were treated with 10 nanograms/millilitre of transforming growth factor beta 1 (TGF-β) for 48 hours. A stock solution of TGF-β was prepared by reconstituting 2 μg of recombinant TGF-β at 20 μg/mL in sterile 4 mM HCl containing 1 mg/mL of bovine serum albumin (BSA) diluted in water. NMuMG cells were cultured in Dulbecco's Modified Eagle Medium (DMEM) (ThermoFisher Scientific, USA), supplemented with 10% FBS, 1% Penicillin-Streptomycin, 1% GlutaMAX, and 10 μg/mL insulin. Colorectal cancer HT-29 cells were treated with 50 nanograms/millilitre of interleukin-6 (IL-6) for 24 hours. A working stock solution of 1 micrograms/millilitre of IL-6 was prepared by dilution in 0.1% BSA in phosphate-buffered saline (PBS). The resulting solution was further diluted upon administration to cells cultured in cell culture media. […]
(§2) Protein expression of EMT molecular markers in control and CoCl2, TGF-β and IL-6 treated cells was detected by employing immunofluorescence microscopy. […] E-cadherin expression was detected by Alexa Fluor 488 staining (green) while nuclei were stained with DAPI (blue) (FIG. 1). Vimentin expression was detected by Texas Red staining (red) while nuclei were stained with DAPI (blue) (FIG. 2). […]
(§3) Methyl-β-cyclodextrin (MβCD) was employed as a positive control, as it is a well-documented cholesterol depletory agent. […] Immunofluorescence intensity was quantified by utilising the ImageJ software (NIH, USA). Cells of interest and background fluorescence was analysed by considering the following parameters: area, integrated density and mean grey value. Corrected total cellular fluorescence was calculated as follows: CTCF=Integrated Density−(Area of selected cell×Mean fluorescence of background readings).
(§4) The protein expression of E-cadherin following treatment with various cholesterol targeting agents in MCF-7, NMuMg, and HT-29 cells, pre- and post-EMT induction was investigated. E-cadherin expression was determined by Alexa Fluor 488 staining (green) while nuclei were stained with DAPI (blue). […]

HT-29 cells [3] = test: Immunofluorescence of EMT markers E-cadherin and vimentin in HT-29 cells; assay type: cell-based
Procedure: as §1, §2, §3, §4

HT-29 cells [4] = test: HT-29 colorectal cancer xenograft in NOD/SCID mice: tumour size, weight, metastasis; assay type: in vivo; set-up: Tumour reduction / Tumour gain or reduction: concentration or dose not given beside the values; conditions: for Average tumour size / Average tumour weight: group average, 4 mice, 3 000 mg/kg HPβCD, 10 mg/kg OXAL, 30 mg/kg 5FU i.p.; for Tumour reduction: tumour size; for Tumour reduction / Tumour gain or reduction: as compared to the untreated group; for Tumour gain or reduction: tumour weight
Procedure: (§5) In order to investigate the in vivo application of HPβCD as an anti-cancer agent for colorectal cancer (CRC) using NOD/SCID mice, 24 NOD/SCID mice (5-8 weeks old) were injected with 4×10^6 HT-29 cells (suspended in 10% McCoy's media and 1×PBS), until tumours developed. Once tumours reached a size of 150-200 mm^3 (1-2 weeks), treatments (12 treatments in total for each group, however only up to 6 treatments for the OXAL treated group due to obvious toxicity) were given. Treatment groups consisted of 4 mice each and included a control group (injected with 1×PBS), a group treated with HPβCD, a group treated with Oxaliplatin (OXAL) only, a group treated with 5-Fluorouracil (5FU) only, a group treated with HPβCD and OXAL and lastly a group treated with HPβCD and 5FU. Mice were intraperitoneally injected with 3 000 mg/kg of HPβCD, 10 mg/kg of OXAL and 30 mg/kg of 5FU thrice a week for 4 weeks. For combination treatments HPβCD was administered with either 5FU or OXAL chemotherapy. Mice were weighed three times a week and averages were calculated to show per week weights. When mice were euthanized, serum was collected from whole blood samples and this was further used to test cholesterol levels, as well as Aspartate aminotransferase (AST) and Alanine aminotransferase (ALT) as a measure for liver toxicity. They were then perfused and all organs, including tumours, were harvested. All organs were snap frozen and stored at −80° C. Tumour samples were further stored in 10% neutral buffered formalin (4° C.) and RNA Later (−80° C.).

NMuMg cells [5] = test: RT-qPCR of cholesterol-related genes in NMuMg cells; conditions: NMuMg post-EMT
Procedure: Relative expression is presented as log 2 fold changes between conditions.
To delineate the molecular mechanism governing cholesterol-mediated EMT induction, RT-qPCR analysis of the major cholesterol-related genes were assessed in the NMuMg cell line. RNA was extracted using the Direct-Zol™ RNA MiniPrep kit (Zymo Research, Inqaba Biotec™, SA). RNA extraction was carried out as per the manufacturer's protocol. Total RNA of 1 μg was utilised for cDNA synthesis using the RevertAidFirst Strand cDNA Synthesis kit (Thermo Fisher Scientific, USA) and was carried out according to the manufacturer's protocol. qPCR was performed using the SensiFAST™ SYBR® No-ROX kit, utilising a 3-step cycle on the CFX96 Touch™ Real-Time PCR detection system (Bio-Rad).

[6] = tested on: multidrug resistance protein 1 (MDR1); test: Vybrant MDR assay (calcein AM retention); assay type: cell-based; conditions: HT-29 cells treated with the FOLFOX chemotherapy cocktail; 1 mM MβCD, 10 mM HPβCD; preliminary data
Procedure: To assess the multi-drug resistant potential of cells pre- and post-EMT, the Vybrant® MDR Assay Kit (ThermoFisher Scientific, USA) was employed. This assay relies on the administration of an appropriate multidrug resistance protein 1 (MDR1) substrate, calcein acetoxymethyl ester (calcein AM) where drug-efflux potential is assessed by measuring the levels of intracellular calcein fluorescence. 10 000 cells were seeded per well in a 96-black walled plate. Following the 2-hour treatment period, cells were incubated with 0.25 μM Calcein-AM for 30 minutes at 37° C. Following this, two PBS washes were completed, and PBS administered to each well to ascertain fluorescence intensity. The Victor Nivo multi-mode microplate reader (Perkin Elmer, USA) was utilised with the excitation maximum set to 494 nm and the emission maximum set to 517 nm.
This can be attributed to alterations in lipid-raft membrane structure resulting in translocation of MDR1 to detergent soluble fractions which affects basal ATPase activity. This consequently affects the efflux potential of the MDR1 transporter. […] Fluorescence intensity (RFU) was quantified using the Victor Nivo multi-mode microplate reader (Perkin Elmer, USA) with the excitation maximum set to 494 nm and the emission maximum set to 517 nm.

[7] = Toxicity of HPβCD compared to simvastatin
[8] = Serum cholesterol levels post treatment; assay type: in vivo, NOD/SCID mice
Procedure: as §5

MCF-7 cells = test: Immunofluorescence of EMT markers E-cadherin and vimentin in MCF-7 cells; assay type: cell-based
Procedure: as §1, §2, §3, §4

[9] = Tolerability of treatments in tumour-bearing NOD/SCID mice; assay type: in vivo
Procedure: as §5

[10] = post-EMT (TGF-β), 2-hour treatment, 10 mM HPβCD, 1 mM MβCD
[11] = HT-29, post-EMT (IL-6), 2-hour treatment, 10 mM HPβCD, 1 mM MβCD
[12] = MCF-7, post-EMT (CoCl2), 2-hour treatment, 10 mM HPβCD, 1 mM MβCD
[13] = MCF-7, 150 μM CoCl2 for 48 hours vs control
[14] = HT-29, 50 ng/mL IL-6 for 24 hours vs control
[15] = 10 ng/mL TGF-β for 48 hours vs control

2-hydroxypropyl-β-cyclodextrin [HPβCD]
AST:ALT ratio [1]: 1.67 U/L | liver toxicity (in words) [1]: no observed liver toxicity | E-cadherin expression (immunofluorescence) (NMuMg cells [2]; [10]): increase | vimentin expression (immunofluorescence) (NMuMg cells [2]; [10]): decrease | E-cadherin expression (immunofluorescence) (HT-29 cells [3]; [11]): increase | vimentin expression (immunofluorescence) (HT-29 cells [3]; [11]): decrease | average reduction in tumour size (HT-29 cells [4]; 3 000 mg/kg HPβCD i.p.): ~17% | tumour size, visually (HT-29 cells [4]; FIG. 9): reduced | Average tumour size (HT-29 cells [4]): 1983 mm^3 | Average tumour weight (HT-29 cells [4]): 3.5125 g | Tumour reduction (HT-29 cells [4]): -17.6% | Tumour gain or reduction (HT-29 cells [4]): 9.17% | effect on cholesterol efflux (gene expression) (NMuMg cells [5]; 10 mM HPβCD, 10 μM simvastatin for 2 hours): drastically affected | intracellular retention of fluorescent calcein [6]: increase | toxicity compared to simvastatin [7]: low toxicity | average level of serum cholesterol ([8]; untreated average 51 mg/dL): 65.5 mg/dL | E-cadherin expression (immunofluorescence) (MCF-7 cells; [12]): increase | vimentin expression (immunofluorescence) (MCF-7 cells; [12]): decrease | effect of HPβCD on toxicity of the co-administered chemotherapy ([9]; 3 000 mg/kg HPβCD i.p. with OXAL or 5FU): decreased the toxicity of OXAL; also recorded: reduced toxicity of OXAL; also recorded: reduce toxicity related to 5FU

O=c1[nH]cc(F)c(=O)[nH]1 [5FU, 5-Fluorouracil]
Average tumour size (HT-29 cells [4]): 841.4 mm^3 | Average tumour weight (HT-29 cells [4]): 1.4475 g | Tumour reduction (HT-29 cells [4]): -65.1% | Tumour gain or reduction (HT-29 cells [4]): -55% | serum cholesterol levels (in words) [8]: significantly higher

[Cl][Co][Cl] [CoCl2, cobalt chloride]
E-cadherin expression following EMT induction (MCF-7 cells; [13]): significantly decreased | Vimentin expression following EMT induction (MCF-7 cells; [13]): significantly increased

O=C1[O][Pt]2([NH][C@@H]3CCCC[C@H]3[NH]2)[O]C1=O [OXAL, Oxaliplatin]
Average tumour size (HT-29 cells [4]): 1413 mm^3 | Average tumour weight (HT-29 cells [4]): 1.6975 g | metastasis at dissection (HT-29 cells [4]; mouse, in vivo): metastasis almost throughout the body in one mouse | Tumour reduction (HT-29 cells [4]): -41.3% | Tumour gain or reduction (HT-29 cells [4]): -47.2% | serum cholesterol levels (in words) [8]: significantly higher | unexpected death of mice in treatment group ([9]; 6 treatments of OXAL alone, 10 mg/kg i.p.): 50% | health outcome of treated mice ([9]; OXAL alone 6 treatments, OXAL with HPβCD all 12 treatments of the same dose): 2 died and 2 had to be euthanized

Methyl-β-cyclodextrin [MβCD]
effect on cholesterol biosynthesis and influx (gene expression) (NMuMg cells [5]; 1 mM MβCD for 2 hours): more significant effect | intracellular retention of fluorescent calcein [6]: increase

interleukin-6 [IL-6]
E-cadherin expression following EMT induction (HT-29 cells [3]; [14]): significantly decreased | Vimentin expression following EMT induction (HT-29 cells [3]; [14]): significantly increased

transforming growth factor beta 1 [TGF-β]
E-cadherin expression following EMT induction (NMuMg cells [2]; [15]): significantly decreased | Vimentin expression following EMT induction (NMuMg cells [2]; [15]): significantly increased
